Assay [1] is described as follows: Antineoplastic activity against Mus musculus (mouse) EACs transplanted in Swiss albino Mus musculus (mouse) assessed as decrease in WBC level at 5 mg/kg, ip administered 9 days measured on day 14 (reference value: 38.6 10^3/mm3). The format is functional, Ehrlich. The settings on record: route intraperitoneal.
Assay [2] can be described thus: Antineoplastic activity against Mus musculus (mouse) EACs transplanted in Swiss albino Mus musculus (mouse) assessed as increase in hematocritis level at 5 mg/kg, ip administered 9 days measured on day 14 (reference value: 35.5 g%). Format: functional, Ehrlich. The following applies: route intraperitoneal.
The nature of assay [3]: Antineoplastic activity against Mus musculus (mouse) EACs transplanted in Swiss albino Mus musculus (mouse) assessed as increase in hemoglobin level at 5 mg/kg, ip administered 9 days measured on day 14 (reference value: 8.7 g%). The format is functional, Ehrlich. The following applies: route intraperitoneal.
A short description of assay [4]: Antineoplastic activity against Mus musculus (mouse) EACs transplanted in Swiss albino mouse assessed as increase in life span at 5 mg/kg, ip after 9 days (reference value: 9.1%). The format is functional, Ehrlich. The settings on record: route intraperitoneal.
Assay [5] is described as follows: Induction of bleomycin-dependent DNA damage at 0.1 mg/ml after 1 hr.
A further assay concerns Ehrlich. Description: Antineoplastic activity against Mus musculus (mouse) EACs transplanted in Swiss albino mouse assessed as reduction in viable tumor cell count at 5 mg/kg, ip after 5 days by Giemsa staining. Format: functional, organism-based. Also noted: dose 5 mg/kg.
A short description of assay [6]: Antineoplastic activity against Mus musculus (mouse) EACs transplanted in Swiss albino mouse assessed as increase in life span at 20 mg/kg, ip after 9 days (reference value: 9.1%). The following applies: route intraperitoneal. The format is functional, Ehrlich.

Activity calls are given as the source filed them. The calls are words filed in the database; no cut-off is given here.

With `O=c1cc(-c2nnc(S)n2-c2ccccc2)c2c(=O)[nH]c(=O)[nH]c2[nH]1`, the Activity turned out to be 11.2 ×10³ /mm3 in assay [1], 51.6% in assay [2], 11.7 g% in assay [3] and 18.6% in assay [4]. Further, the result (in assay [5]; with Ehrlich) was Active. With `COc1ccc(/C=N/NC(=O)c2cc(=O)[nH]c3[nH]c(=O)[nH]c(=O)c23)cc1`, in assay [5], the result was Active.

As for `O=C(NNC(=S)Nc1ccccc1)c1cc(=O)[nH]c2[nH]c(=O)[nH]c(=O)c12`, the outcome in assay [5] was Active. As for `O=c1[nH]cc(F)c(=O)[nH]1` [FLUOROURACIL], the Activity in assay [1] was found to be 13.8 ×10³ /mm3; in assay [2] it was 42.3%; in assay [3], 10 g%; in assay [6], 16.7%. `O=C(NNC(=S)Nc1ccc(F)cc1)c1cc(=O)[nH]c2[nH]c(=O)[nH]c(=O)c12`: in assay [5], the outcome was Active.

As to `O=c1cc(-c2nnc(S)n2-c2ccc(F)cc2)c2c(=O)[nH]c(=O)[nH]c2[nH]1`, in assay [5], the result was Active. The same measure, in the same setting: the entry for `O=C(CCl)NNC(=O)c1cc(=O)[nH]c2[nH]c(=O)[nH]c(=O)c12` is “Active”; for `O=C(N/N=C/c1cccc([N+](=O)[O-])c1)c1cc(=O)[nH]c2[nH]c(=O)[nH]c(=O)c12` it is “Active”; for `O=C(CN1CCN(c2ccccc2)CC1)NNC(=O)c1cc(=O)[nH]c2[nH]c(=O)[nH]c(=O)c12` it is “Active”.

Regarding `COc1ccc(N2CCN(CC(=O)NNC(=O)c3cc(=O)[nH]c4[nH]c(=O)[nH]c(=O)c34)CC2)cc1`, the outcome in assay [5] was Active. Same read-out and setting: the entry for `O=C(CCl)Sc1nnc(-c2cc(=O)[nH]c3[nH]c(=O)[nH]c(=O)c23)n1-c1ccc(F)cc1` is “Active”. Still for that read-out and setting: the entry for `NNC(=O)c1cc(=O)[nH]c2[nH]c(=O)[nH]c(=O)c12` is “Active”; for `COC(=O)c1cc(=O)[nH]c2[nH]c(=O)[nH]c(=O)c12` it is “Active”; for `O=C(CN1CCN(c2ccccc2)CC1)Sc1nnc(-c2cc(=O)[nH]c3[nH]c(=O)[nH]c(=O)c23)n1-c1ccc(F)cc1` it is “Active”.

These data come from ChEMBL document CHEMBL3045865, “Synthesis and antitumor activity of new pyrido[2,3-d]pyrimidine derivatives” (2013).
